Data published in patent US20190337924A1, “SUBSTITUTED HYDANTOIN AND THIOHYDANTOIN DERIVATIVES AS ANDROGEN RECEPTOR ANTAGONISTS” (Janssen Pharmaceutica NV, priority 2016, published 2019).
Counter-ions that a name gives are not always drawn. Like-named read-outs stand apart in the source and are kept apart here.

Legend:
[1] = molecular target: T1, wild-type Androgen Receptor (AR-wt) (Homo sapiens, UniProt P10275); experiment: AR reporter assay, LNCaP-AR-wt ANT (antagonist mode); format: cell-based; settings: for Emax: read-out: LNCaP-AR-wt ANT MAX % Inh
T1 construct: expressed in transfected cells; host or cells: LNCaP
T1 sequence (P10275 1-920): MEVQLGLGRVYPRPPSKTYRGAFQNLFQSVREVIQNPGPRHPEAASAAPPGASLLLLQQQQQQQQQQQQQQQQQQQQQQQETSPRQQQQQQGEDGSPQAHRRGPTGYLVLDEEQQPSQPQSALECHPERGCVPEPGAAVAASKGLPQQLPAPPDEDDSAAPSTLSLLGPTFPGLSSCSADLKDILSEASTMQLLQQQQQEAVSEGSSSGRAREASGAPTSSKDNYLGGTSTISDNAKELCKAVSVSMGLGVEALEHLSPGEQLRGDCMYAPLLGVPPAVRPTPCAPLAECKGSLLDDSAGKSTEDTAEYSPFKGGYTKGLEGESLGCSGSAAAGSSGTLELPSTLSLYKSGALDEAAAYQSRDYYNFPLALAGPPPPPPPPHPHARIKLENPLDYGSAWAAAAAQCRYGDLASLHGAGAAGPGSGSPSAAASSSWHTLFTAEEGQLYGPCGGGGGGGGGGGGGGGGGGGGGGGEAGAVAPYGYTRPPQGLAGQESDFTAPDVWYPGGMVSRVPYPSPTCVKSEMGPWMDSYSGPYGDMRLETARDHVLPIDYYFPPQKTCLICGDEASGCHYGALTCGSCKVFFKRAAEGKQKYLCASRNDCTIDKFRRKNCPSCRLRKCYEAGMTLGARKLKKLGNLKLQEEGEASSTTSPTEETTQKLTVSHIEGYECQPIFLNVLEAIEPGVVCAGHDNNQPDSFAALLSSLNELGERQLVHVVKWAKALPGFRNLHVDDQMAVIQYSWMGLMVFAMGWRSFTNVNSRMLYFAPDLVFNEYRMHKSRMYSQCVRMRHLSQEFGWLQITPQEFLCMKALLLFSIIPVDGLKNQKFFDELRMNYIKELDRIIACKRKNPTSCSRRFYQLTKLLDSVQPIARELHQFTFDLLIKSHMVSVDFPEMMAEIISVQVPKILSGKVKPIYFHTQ
Description: (§1) LNCaP AR (cs) and LNCaP F876L luciferase cell lines were generated by transduction of each cell line (description of cell line generation Joseph J D, Lu N, Qian J, Sensintaffar J, Shao G, Brigham D, Moon M, Maneval E C, Chen I, Darimont B, Hager J H. A clinically relevant androgen receptor mutation confers resistance to second-generation antiandrogens enzalutamide and ARN-509. Cancer Discov 2013; 3:1020-1029) with an Androgen Response Element Firefly Luciferase lentiviral construct at an MOI (multiplicity of infection) of 50 following the manufacturer's instructions (Qiagen). A stable pooled-population cell line was generated using puromycin (Life Technologies) selection at 1:10,000 v/v. The protocol below was used for both cell lines and for testing of the compounds of Formula (I) of the present invention.
(§2) LNCaP cells were grown to about 80% confluence, media removed and cells rinsed in Hank's balanced salt solution prior to separation from the plate with 0.05% Trypsin EDTA. Cells were lifted and trypsin negated in complete CSS (charcoal stripped serum) culture media. CSS was maintained on cells for 24 h prior to assay, at which time 5,000 cells/[…] were seeded in Greiner 384 well White/White Tissue Culture Treated Plates and incubated for a further 1-2 hours at 37° C., 5% CO2, prior to addition of 10 μL of 4× Test Compounds (compounds described herein) or Assay Controls (all diluted in complete media containing 10% css). A further 10 μL of 4× R-1881 Agonist Challenge (antagonist assay) or Buffer (agonist assay) was then added (all diluted in complete media containing 10% css). Agonist challenge was at 400 pM for WT assay and 600 pM for F876L assay. Plates containing cells and compounds herein were incubated for a further 20-24 hours at 37° C., 5% CO2 before addition of 40 μL/well of Steady-Glo Luciferase Assay System Reagent (Promega#E2520). After 1 h, plates were read for luminescence on a BMG Pherastar.
Agonist challenge: R-1881 (Metribolone)—Agonist
Antagonist control (low control): 5-(5-(4-((1-Methylpiperidin-4-yl)oxy)phenyl)-8-oxo-6-thioxo-5,7-diazaspiro[3.4]octan-7-yl)-3-(trifluoromethyl)picolinonitrile (WO 2011/103202, EXAMPLE 19, Compound 129, CAS #1332390-06-3).
(1−(Sample RLU−Ave Low Control RLU[10 μM Antagonist Control])/(Ave High Control RLU [400 pM R-1881]−Ave Low Control RLU[10 μM Antagonist Control]))*100.
(§3) EC/IC50 calculations were achieved utilizing calculated RLU data and data fitting macros. Data were fit using least-squares methods to the following formula: […]
(§4) As used herein: • pIC50 is defined as −Log10(IC50 expressed in [Molar]). • pEC50 is defined as −Log10(EC50 expressed in [Molar]). • MAX % Inh is defined as the maximum % inhibition of R1881 control response observed for a compound over the tested concentration range. • MAX % Stim is defined as the maximum % stimulation (agonist response) observed for a compound over the tested concentration range. • LNCaP-AR-wt ANT refers to the reporter assay using LNCaP cells stably transfected with the Androgen Response Element Firefly Luciferase lentiviral construct and wild-type Androgen Receptor (AR-wt) in Antagonist mode. • LNCaP-AR-wt AG refers to the reporter assay using LNCaP cells stably transfected with the Androgen Response Element Firefly Luciferase lentiviral construct and wild-type Androgen Receptor (AR-wt) in Agonist mode. • LNCaP-AR-F876L ANT refers to the reporter assay using LNCaP cells stably transfected with the Androgen Response Element Firefly Luciferase lentiviral construct and F876L mutant Androgen Receptor (AR-F876L) in Antagonist mode. • LNCaP-AR-F876L AG refers to the reporter assay using LNCaP cells stably transfected with the Androgen Response Element Firefly Luciferase lentiviral construct and F876L mutant Androgen Receptor (AR-F876L) in Agonist mode.

[2] = molecular target: T1, wild-type Androgen Receptor (AR-wt); experiment: AR reporter assay, LNCaP-AR-wt AG (agonist mode); format: cell-based; settings: for Emax: read-out: LNCaP-AR-wt AG MAX % Stim
Description: as §1, §2
((Sample RLU−Ave Low Control RLU[DMSO/Buffer])/(Ave High Control RLU [1 μM R-1881]—Ave Low Control RLU[DMSO/Buffer]))*100.
as §3, §4

[3] = antagonist mode, 400 pM R-1881 challenge, luciferase reporter, -Log10(IC50 in Molar), read-out: LNCaP-AR-wt ANT pIC50 (converted)
[4] = agonist mode (buffer, no R-1881), -Log10(EC50 in Molar), read-out: LNCaP-AR-wt AG pEC50 (converted)

Compound	IC50 [1] [µM]	Emax [1] [%]	EC50 [2] [µM]	Emax [2] [%]	IC50 [1, 3] [µM]	EC50 [2, 4] [µM]
N#Cc1ccc(N2C(=O)C3(CCC3)N(c3ccc(OC4CCNCC4)cc3)C2=S)cc1C(F)(F)F [Compound 11, 4-(8-Oxo-5-(4-(piperidin-4-yloxy)phenyl)-6-thioxo-5,7-diazaspiro[3.4]octan-7-yl)-2-(trifluoromethyl)benzonitrile]	0.331	105	> 15.1	0.1	–	–
CN1CCC(Oc2ccc(N3C(=S)N(c4ccc(C#N)c(C(F)(F)F)c4)C(=O)C34CCC4)cc2)CC1 [Compound 12, 4-(5-(4-((1-Methylpiperidin-4-yl)oxy)phenyl)-8-oxo-6-thioxo-5,7-diazaspiro[3.4]octan-7-yl)-2-(trifluoromethyl)benzonitrile]	0.324	104	> 15.1	0.4	–	–
N#Cc1ccc(N2C(=O)C3(CCC3)N(c3ccc(OC4CCNCC4)nc3)C2=S)cc1C(F)(F)F [Compound 13, 4-(8-Oxo-5-(6-(piperidin-4-yloxy)pyridin-3-yl)-6-thioxo-5,7-diazaspiro[3.4]octan-7-yl)-2-(trifluoromethyl)benzonitrile hydrochloride]	0.0631	104	> 15.1	0.5	–	–
CN1CCC(Oc2ccc(N3C(=S)N(c4ccc(C#N)c(C(F)(F)F)c4)C(=O)C34CCC4)cn2)CC1 [Compound 14, 4-(5-(6-((1-Methylpiperidin-4-yl)oxy)pyridin-3-yl)-8-oxo-6-thioxo-5,7-diazaspiro[3.4]octan-7-yl)-2-(trifluoromethyl)benzonitrile]	0.0891	104	> 15.1	0.2	–	–
N#Cc1ccc(N2C(=O)C3(CCC3)N(c3cnc(OC4CCNCC4)nc3)C2=S)cc1C(F)(F)F [Compound 15, 4-(8-Oxo-5-(2-(piperidin-4-yloxy)pyrimidin-5-yl)-6-thioxo-5,7-diazaspiro[3.4]octan-7-yl)-2-(trifluoromethyl)benzonitrile]	–	102	> 15.1	-0.2	0.158	–
CN1CCC(Oc2ncc(N3C(=S)N(c4ccc(C#N)c(C(F)(F)F)c4)C(=O)C34CCC4)cn2)CC1 [Compound 16, 4-(5-(2-((1-Methylpiperidin-4-yl)oxy)pyrimidin-5-yl)-8-oxo-6-thioxo-5,7-diazaspiro[3.4]octan-7-yl)-2-(trifluoromethyl)benzonitrile]	–	102	> 15.1	-0.1	0.209	–
Cc1cc(N2C(=O)C3(CCC3)N(c3ccc(OC4CCN(C)CC4)cc3)C2=S)ccc1C#N [Compound 17, 2-Methyl-4-(5-(4-((1-methylpiperidin-4-yl)oxy)phenyl)-8-oxo-6-thioxo-5,7-diazaspiro[3.4]octan-7-yl)benzonitrile]	–	105	–	-0.1	0.17	> 15.1
Cc1cc(N2C(=O)C3(CCC3)N(c3ccc(OC4CCN(C)CC4)nc3)C2=S)ccc1C#N [Compound 18, 2-Methyl-4-(5-(6-((1-methylpiperidin-4-yl)oxy)pyridin-3-yl)-8-oxo-6-thioxo-5,7-diazaspiro[3.4]octan-7-yl)benzonitrile]	–	99.4	–	0.6	0.0363	> 15.1
COc1cc(N2C(=O)C3(CCC3)N(c3ccc(OC4CCN(C)CC4)cc3)C2=S)ccc1C#N [Compound 19, 2-Methoxy-4-(5-(4-((1-methylpiperidin-4-yl)oxy)phenyl)-8-oxo-6-thioxo-5,7-diazaspiro[3.4]octan-7-yl)benzonitrile]	–	105	> 15.1	-0.1	0.141	–
COc1cc(N2C(=O)C3(CCC3)N(c3ccc(OC4CCN(C)CC4)nc3)C2=S)ccc1C#N [Compound 20, 2-Methoxy-4-(5-(6-((1-methylpiperidin-4-yl)oxy)pyridin-3-yl)-8-oxo-6-thioxo-5,7-diazaspiro[3.4]octan-7-yl)benzonitrile]	–	100	> 15.1	-0.1	0.214	–
N#Cc1ccc(N2C(=O)C3(CCC3)N(c3ccc(OC4CCNCC4)cc3)C2=S)cc1Cl [Compound 21, 2-Chloro-4-(8-oxo-5-(4-(piperidin-4-yloxy)phenyl)-6-thioxo-5,7-diazaspiro[3.4]octan-7-yl)benzonitrile]	–	106	> 15.1	0.1	0.331	–
CN1CCC(Oc2ccc(N3C(=S)N(c4ccc(C#N)c(Cl)c4)C(=O)C34CCC4)cc2)CC1 [Compound 22, 2-Chloro-4-(5-(4-((1-methylpiperidin-4-yl)oxy)phenyl)-8-oxo-6-thioxo-5,7-diazaspiro[3.4]octan-7-yl)benzonitrile]	0.245	98.4	> 15.1	-0.2	–	–
N#Cc1ccc(N2C(=O)C3(CCC3)N(c3ccc(OC4CCNCC4)nc3)C2=S)cc1Cl [Compound 23, 2-Chloro-4-(8-oxo-5-(6-(piperidin-4-yloxy)pyridin-3-yl)-6-thioxo-5,7-diazaspiro[3.4]octan-7-yl)benzonitrile hydrochloride]	0.0676	105	> 15.1	0.9	–	–
CN1CCC(Oc2ccc(N3C(=S)N(c4ccc(C#N)c(Cl)c4)C(=O)C34CCC4)cn2)CC1 [Compound 24, 2-Chloro-4-(5-(6-((1-methylpiperidin-4-yl)oxy)pyridin-3-yl)-8-oxo-6-thioxo-5,7-diazaspiro[3.4]octan-7-yl)benzonitrile hydrochloride]	0.0955	102	> 15.1	0.3	–	–
